Source: EP4417202A1, “ANTI-CANCER ACTION OF BAG1-SELECTIVE IMIDAZOPYRIDINE COMPOUNDS IN STEROID HORMONE RECEPTOR-POSITIVE BREAST AND PROSTATE CANCER” (Karlsruher Institut für Technologie, priority 2023, dated 2024)

What was measured:
[1] = tested on: reactive oxygen species (ROS); assay: Reduced 2',7'-dichlorofluorescein (DCF) diacetate oxidation assay; format: cell-based; conditions: 48 h
Method: For measurements of ROS levels, MCF-7 and T47D cells were seeded at 1×10^3 cells in RPMI 1640 supplemented with 10% FBS and treated with 10^-9 - 10^-6 M X15695 for 48 h. Afterwards, cells were loaded with 10 µM) H2DCF-DA (Thermo Fisher Scientific, Karlsruhe, Germany) in phenol red-free medium for 40 min. Cells were subsequently washed with medium and further incubated in medium for 120 min before analysis of fluorescence at 485 nm excitation and 530 nm emission using a multi-well fluorescence reader (SpectraMax iD3, Molecular Devices with SoftMax Pro 7 software, Biberach an der Riss, Germany). After the DCF assay, cells were frozen at -80°C overnight. After thawing, DNA was stained with a Hoechst dye (10 µg/ml final concentration) for 30 min at room temperature and fluorescence was measured at 352 nm excitation and 454 nm emission in a multi-well fluorescence reader (SpectraMax iD3, Molecular Devices with SoftMax Pro 7 software, Biberach an der Riss, Germany). DCF fluorescent intensities were normalized to Hoechst fluorescent intensities.

[2] = tested on: MCF-7 tumors; assay: Mouse xenograft experiment, MCF-7; format: in vivo; conditions: MCF-7 xenograft
Method: MCF-7 and LAPC-4 cells (2×10^6) were suspended in 100 µl PBS: Matrigel (Corning NY USA, 1:1) and injected subcutaneously into both flanks of 6-7 weeks old female (for MCF-7 cells) and male (for LAPC-4 cells) athymic nude-Foxn1^nu mice (Envigo RMS GmbH, Düsseldorf, Germany). When tumor volumes were around 50 to100 mm^3, mice were randomized into four groups (7 mice per group) and treated daily by oral gavage as follows: (1) Control group (Vehicle) (corn oil, 1.0% dimethyl sulfoxide (DMSO) and (2) X15695 group, 30 mg per kg body weight) for the MCF-7 tumors or (1) Control group (Vehicle) (corn oil, 1.0% dimethyl sulfoxide (DMSO) (2) enzalutamide (Enza group, 15 mg per kg body weight), (3) X15695 group, 30 mg per kg body weight) and, (4) X15695 group (15 mg per kg body weight) for the LAPC-4 tumors. Body weight and tumor volumes were measured twice a week. Tumor volume was measured with a digital vernier caliper and calculated using the formula vol = length × width × height × 0.5236 and recorded or calculated relative to the starting volume which was nominally set at 100%. After 16 days for the MCF-7 tumors or 42 days for the LAPC-4 tumors, mice were sacrificed and the tumors removed, photographed, and weighed. Percent body weight change was calculated using the following formula: group percent weight change = [(new weight - initial weight)/initial weight] × 100]. Tumors were snap-frozen and stored for Western blot analysis.

[3] = 30 mg/kg body weight per os daily
[4] = Western blot after the treatment period

Q: What does the source list for `Fc1ccc(-c2cn3cc(C(F)(F)F)cc(Cl)c3n2)cc1` [Compound X15695, 8-Chloro-2-(4-fluorophenyl)-6-(trifluoromethyl)imidazo[1,2-a]pyridine]?
A: ROS production ([1]; MCF-7 cells): significant dose-dependent production of ROS; ROS production ([1]; T47D cells): not in T47D cells; tumor volume [2, 3]: significant decrease; tumor weight [2, 3]: significant decrease; tolerability, body weight ([2]; 30 mg/kg body weight per os daily, 16 days): well tolerated and did not cause any weight loss or other signs of host toxicity; ERα level in tumor lysates [2, 4]: significant decrease in ERα level; p53 expression in tumor lysates [2, 4]: increase in p53 expression
